Entries after “also recorded” stand apart in the source; their conditions may differ. Each block holds one compound with its values, some of them ahead of it.
What was measured:
Assay type in all cases: biochemical, bovine
PtdIns 4-kinase [1] = biological target: T1, PtdIns 4-kinase (Bos taurus, UniProt A6QLN5); assay: Specificity of PtdIns 4-kinase for a lipid substrate; settings: for Relative activity with lipid added: lipid 0.25 mg/ml, organic extractable label, background subtracted, PtdIns (soybean) = 100; for phosphorylation of lipid by the purified enzyme: standard assay buffer with the indicated lipid
T1 construct: It constitutes the major PtdIns 4-kinase activity of bovine uteri; from tissue; host or cells: bovine uterus (acetone powder, purified over ammonium sulfate, Mono Q, S-Sepharose, Mono Q, Mono P and hydroxylapatite)
T1 sequence (A6QLN5 1-479): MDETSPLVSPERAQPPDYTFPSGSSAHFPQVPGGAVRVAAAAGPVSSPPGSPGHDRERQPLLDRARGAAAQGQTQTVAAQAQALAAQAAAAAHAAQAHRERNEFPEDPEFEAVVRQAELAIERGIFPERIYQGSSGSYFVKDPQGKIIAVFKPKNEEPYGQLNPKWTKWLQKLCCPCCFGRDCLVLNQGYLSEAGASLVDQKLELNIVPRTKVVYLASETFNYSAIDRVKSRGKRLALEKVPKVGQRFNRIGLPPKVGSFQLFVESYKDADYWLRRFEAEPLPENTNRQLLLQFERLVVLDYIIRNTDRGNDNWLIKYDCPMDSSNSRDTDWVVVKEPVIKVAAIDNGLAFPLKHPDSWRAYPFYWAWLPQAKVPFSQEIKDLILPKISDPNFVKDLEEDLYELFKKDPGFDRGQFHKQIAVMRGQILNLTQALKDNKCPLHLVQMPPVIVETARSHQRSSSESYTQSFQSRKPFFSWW
Protocol: (§1) PtdIns 4-kinase activity was assayed in 60 μl at 30° C. in 20 mM BisTris-HCl (pH 7.0), 10 mM MgCl2, 1.0% Triton X-100, 0.25 mg/ml phosphatidylinositol, and 150 μM ATP (1.25 μCi[-^32 P]ATP), unless otherwise noted. The reaction was terminated by the addition of 12 μl of cold HCl, 120 μl of cold methanol, 150 μl of chloroform, and 40 μl of H2 O. The extracted samples were centrifuged at 12,000 × g for 1 min. and the aqueous layer removed and discarded. When needed, the organic phase was washed with 40 μl of cold methanol and 40 μl of cold 1.0 N HCl, centrifuged at 12,000 × g, and the aqueous layer was removed. The organic phase was then dried under vacuum in a Savant speed-vac, resuspended in 40 μl of chloroform/methanol (2:1), and chromatographed on potassium oxalate-impregnated Silica Gel 60 thin layer chromatography plates (TLC). The solvent system used consisted of chloroform/methanol/ammonium hydroxide/water (51:39.6:3:8.4). For two-dimensional thin layer chromatography, the preceding solvent system was used for the first dimension, and chloroform/methanol/acetic acid/water (50:39:1:10) was used for the second dimension. Standards were visualized by exposing the TLC plate to iodine vapor. The reaction product, phosphatidylinositol 4-phosphate, was visualized by autoradiography, and the corresponding area of the TLC plate was scraped and quantitated by Cherenkov counting. This assay was linear with respect to both protein concentration and time. For tests utilizing [^3 H]PtdIns, the corresponding areas of the TLC plates were scraped and the silica powder was suspended in a gel of Aquasol/H2 O (4:1) before counting. All assays (except column fractions) were done in duplicate or triplicate.
The specificity of PtdIns 4-kinase for lipid substrates was also examined using standard assay buffer containing […] of the indicated lipid. After extraction the organic phase was washed three times, dried in vacuo, and the organic extractable label was quantitated. Control reactions (no lipid) established background levels which were then subtracted from the experimentally derived values (Table III). […] The sensitivity of the above technique was limited and appeared to show little or no activity with lyso-PtdIns; however, subsequent TLC of these reactions established that the enzyme would phosphorylate lyso-PtdIns about 10% as well as soybean Ptdlns. […] Except for lyso-Ptdlns, the results presented in Table III were confirmed by thin layer chromatography.

PtdIns 4-kinase [2] = biological target: T1, PtdIns 4-kinase; assay: Specificity of PtdIns 4-kinase for a nucleotide phosphoryl donor ([3H]PtdIns as substrate); settings: for utilization as phosphoryl donor (words): [3H]PtdIns as substrate; for activity at 150 µM: read-out: Relative activity with nucleotide donor
Protocol: as §1, with “This assay was linear with respect to both protein concentration and time.” left out

PtdIns 4-kinase [3] = biological target: T1, PtdIns 4-kinase; assay: Effect of potential inhibitors on PtdIns 4-kinase activity; settings: for effectiveness as inhibitor / relative activity at 1000 µM / Relative activity with potential inhibitor: PtdIns 0.1 mg/ml; for effectiveness as inhibitor: soluble compounds approximately 10-fold above the PtdIns concentration; for relative activity at 1000 µM: read-out: Relative activity with potential inhibitor, heading: Relative activity with potential inhibitor; for inhibition: approximately 5-fold molar excess over PtdIns (0.1 mg/ml)
Protocol: as §1, with “This assay was linear with respect to both protein concentration and time.” left out
Various PtdIns-related compounds were tested as possible inhibitors of this purified PtdIns 4-kinase. A concentration of PtdIns of 0.1 mg/ml was used in these tests to accentuate possible competitive inhibition by potential inhibitors (Table IV).

[4] = nucleotide donor 150 μM, ATP = 100

Relative activity with lipid added (PtdIns 4-kinase [1]): 0%
phosphorylation of lipid by the purified enzyme (PtdIns 4-kinase [1]): lacked diacylglycerol kinase activity
Compound: CCCCC/C=C\C/C=C\C/C=C\C/C=C\CCCC(=O)O[C@@H](CO)COC(=O)CCCCCCCCCCCCCCCCC [1-Stearoyl-2-arachidonoyl-sn-glycerol]

activity at 150 µM (PtdIns 4-kinase [2]; [4]): 12%
Compound: Nc1ncnc2c1ncn2[C@@H]1O[C@H](COP(=O)(O)OP(=O)(O)O)[C@@H](O)[C@H]1O [ADP]
utilization as phosphoryl donor (words) (PtdIns 4-kinase [2]): No PtdIns-4-P was observed; also recorded: No PtdIns-4-P 5-kinase activity was present

activity at 150 µM (PtdIns 4-kinase [2]; [4]): 10%
Compound: Nc1ccn([C@@H]2O[C@H](COP(=O)(O)OP(=O)(O)OP(=O)(O)O)[C@@H](O)[C@H]2O)c(=O)n1 [CTP]
utilization as phosphoryl donor (words) (PtdIns 4-kinase [2]): No PtdIns-4-P was observed; also recorded: No PtdIns-4-P 5-kinase activity was present

effectiveness as inhibitor (PtdIns 4-kinase [3]): ineffective as inhibitors
relative activity at 1000 µM (PtdIns 4-kinase [3]; inhibitor 1.0 mM): 86%
Compound: O=P(O)(OCC(O)CO)O[C@@H]1[C@H](O)[C@H](O)[C@@H](O)[C@H](O)[C@H]1O (stereo partly drawn) [Glycerophospho-D-myo-inositol]

activity at 150 µM (PtdIns 4-kinase [2]; [4]): 11%
Compound: O=c1[nH]cnc2c1ncn2[C@@H]1O[C@H](COP(=O)(O)OP(=O)(O)OP(=O)(O)O)[C@@H](O)[C@H]1O [ITP]
utilization as phosphoryl donor (words) (PtdIns 4-kinase [2]): No PtdIns-4-P was observed; also recorded: No PtdIns-4-P 5-kinase activity was present

effectiveness as inhibitor (PtdIns 4-kinase [3]): ineffective as inhibitors
relative activity at 1000 µM (PtdIns 4-kinase [3]; inhibitor 1.0 mM): 118%
Compound: OC1C(O)C(O)C2(CO2)C(O)C1O (stereo not drawn) [Inositol 2,2'-anhydro-2-C-hydroxymethyl]

Relative activity with nucleotide donor (PtdIns 4-kinase [2]; [4]): 3
Compound: Cc1cn([C@H]2C[C@H](O)[C@@H](COP(=O)(O)OP(=O)(O)OP(=O)(O)O)O2)c(=O)[nH]c1=O [TTP]

activity at 150 µM (PtdIns 4-kinase [2]; [4]): 18%
Compound: O=c1ccn([C@@H]2O[C@H](COP(=O)(O)OP(=O)(O)OP(=O)(O)O)[C@@H](O)[C@H]2O)c(=O)[nH]1 [UTP]
utilization as phosphoryl donor (words) (PtdIns 4-kinase [2]): A small amount of PtdIns-4-P was observed

utilization as phosphoryl donor (words) (PtdIns 4-kinase [2]; listed as 2'-deoxy-ATP): utilized
utilization as phosphoryl donor (words) (PtdIns 4-kinase [2]; listed as 2-deoxy-ATP): utilized; also recorded: will utilize
activity at 150 µM (PtdIns 4-kinase [2]; [4]): 104%
Compound: Nc1ncnc2c1ncn2[C@H]1C[C@H](O)[C@@H](COP(=O)(O)OP(=O)(O)OP(=O)(O)O)O1 [dATP, 2'-deoxy-ATP]

utilization as phosphoryl donor (words) (PtdIns 4-kinase [2]; listed as 2,3-Dideoxy-ATP): partially effective
utilization as phosphoryl donor (words) (PtdIns 4-kinase [2]; listed as 2,3-dideoxy-ATP): to a lesser degree will utilize
activity at 150 µM (PtdIns 4-kinase [2]; [4]): 39%
Compound: Nc1ncnc2c1ncn2[C@H]1CC[C@@H](COP(=O)(O)OP(=O)(O)OP(=O)(O)O)O1 [ddATP, 2,3-Dideoxy-ATP]

Relative activity with lipid added (PtdIns 4-kinase [1]): 110%
phosphorylation of lipid by the purified enzyme (PtdIns 4-kinase [1]): able to phosphorylate
Compound: Phosphatidylinositol [PtdIns (bovine)]

Relative activity with lipid added (PtdIns 4-kinase [1]): 100%
phosphorylation of lipid by the purified enzyme (PtdIns 4-kinase [1]): able to phosphorylate
Compound: Phosphatidylinositol [PtdIns (soybean)]

Relative activity with lipid added (PtdIns 4-kinase [1]): 0%
inhibition (PtdIns 4-kinase [3]): 42%
Relative activity with potential inhibitor (PtdIns 4-kinase [3]; inhibitor 0.02 mg/ml): 99%
Relative activity with potential inhibitor (PtdIns 4-kinase [3]; inhibitor 0.10 mg/ml): 105%
Relative activity with potential inhibitor (PtdIns 4-kinase [3]; inhibitor 0.50 mg/ml): 58%
Compound: phosphatidylinositol 4-phosphate [PtdIns-4-P]
phosphorylation of lipid by the purified enzyme (PtdIns 4-kinase [1]): lacked detectable PtdIns-4-P 5-kinase activity
effectiveness as inhibitor (PtdIns 4-kinase [3]): Neither PtdIns-4-P or PtdIns-4,5-P2 were effective inhibitors

Continued, compound first:

Compound: Nc1nc2c(ncn2[C@@H]2O[C@H](COP(=O)(O)OP(=O)(O)OP(=O)(O)O)[C@@H](O)[C@H]2O)c(=O)[nH]1 [GTP]
utilization as phosphoryl donor (words) (PtdIns 4-kinase [2]): No PtdIns-4-P was observed; also recorded: No PtdIns-4-P 5-kinase activity was present
activity at 150 µM (PtdIns 4-kinase [2]; [4]): 5%

Compound: O=P(O)(O)O[C@H]1[C@H](O)[C@@H](O)[C@H](OP(=O)(O)O)[C@@H](O)[C@H]1O [Ins-1,4-P2]
effectiveness as inhibitor (PtdIns 4-kinase [3]): ineffective as inhibitors
Relative activity with potential inhibitor (PtdIns 4-kinase [3]; inhibitor 1.0 mM): 98%

Compound: O=P(O)(O)OC1[C@H](O)[C@H](O)C(O)[C@H](O)[C@H]1O (stereo partly drawn) [Ins-1-P]
effectiveness as inhibitor (PtdIns 4-kinase [3]): ineffective as inhibitors
Relative activity with potential inhibitor (PtdIns 4-kinase [3]; inhibitor 1.0 mM): 89%

Compound: CCCCCCCCCCCCCCCC(=O)OC[C@H](COP(=O)(O)O[C@H]1[C@H](O)[C@@H](O)[C@H](OP(=O)(O)O)[C@@H](OP(=O)(O)O)[C@H]1O)OC(=O)CCCCCCCCCCCCCCC [PtdIns-4,5-P2, phosphatidylinositol 4,5-diphosphate]
Relative activity with lipid added (PtdIns 4-kinase [1]): 0%
phosphorylation of lipid by the purified enzyme (PtdIns 4-kinase [1]): nor would it phosphorylate
effectiveness as inhibitor (PtdIns 4-kinase [3]): Neither PtdIns-4-P or PtdIns-4,5-P2 were effective inhibitors
inhibition (PtdIns 4-kinase [3]): 59%
Relative activity with potential inhibitor (PtdIns 4-kinase [3]; inhibitor 0.02 mg/ml): 109%
Relative activity with potential inhibitor (PtdIns 4-kinase [3]; inhibitor 0.10 mg/ml): 101%
Relative activity with potential inhibitor (PtdIns 4-kinase [3]; inhibitor 0.50 mg/ml): 41%

Compound: L-α-lysophosphatidylinositol [Lyso-PtdIns]
phosphorylation relative to soybean PtdIns, by subsequent TLC (PtdIns 4-kinase [1]; TLC of the reactions): about 10%
Relative activity with lipid added (PtdIns 4-kinase [1]): 0%

Compound: L-α-phosphatidyl-L-serine [Phosphatidylserine]
Relative activity with lipid added (PtdIns 4-kinase [1]): 1%
phosphorylation of lipid by the purified enzyme (PtdIns 4-kinase [1]): no phosphorylation

Compound: L-α-phosphatidylcholine
Relative activity with lipid added (PtdIns 4-kinase [1]): 0%
phosphorylation of lipid by the purified enzyme (PtdIns 4-kinase [1]): no phosphorylation

Compound: L-α-phosphatidylethanolamine
Relative activity with lipid added (PtdIns 4-kinase [1]): 0%
phosphorylation of lipid by the purified enzyme (PtdIns 4-kinase [1]): no phosphorylation

Compound: galactocerebrosides (mixed)
Relative activity with lipid added (PtdIns 4-kinase [1]): 0%
phosphorylation of lipid by the purified enzyme (PtdIns 4-kinase [1]): would not phosphorylate

Compound: glucocerebrosides
Relative activity with lipid added (PtdIns 4-kinase [1]): 0%
phosphorylation of lipid by the purified enzyme (PtdIns 4-kinase [1]): would not phosphorylate
